# Patent EP1149096B1, “TRICYCLIC PYRIDINE N-OXIDES VASOPRESSIN AGONISTS” (Wyeth, priority 1999, dated 2000)
# Test system: Vasopressin V2
# Experiment: Vasopressin V2 agonist effects in normal conscious water-loaded rats
# Assay type: in vivo
# Conditions: oral dose of 10 mg/kg, urine collected for four hours after dosing, Sprague-Dawley (CD) rats, water-loaded 30 ml/kg; for Changes in Urinary Osmolality: Percent changes in osmolality vs. control; for Urine Volume (% decrease): Percent decrease in urine volume vs. control
# Description: Vasopressin V2 Agonist Effects of Test Compounds in Normal Conscious Water-Loaded Rats:
# Male or female normotensive Sprague-Dawley rats (Charles River Laboratories, Inc., Kingston, NY) of 350-500 g body weight were supplied with standard rodent diet (Purina Rodent Lab. Chow 5001) and water ad libitum. On the day of test, rats were placed individually into metabolic cages equipped with devices to separate the feces from the urine and containers for collection of urine. A test compound or a reference agent was given at an oral dose of 10 mg/kg in a volume of 10 ml/kg. The vehicle used was 20% dimethylsulfoxide (DMSO) in 2.5% preboiled corn starch. Thirty minutes after dosing the test compound, rats were gavaged with water at 30 ml/kg into the stomach using a feeding needle. During the test, rats were not provided with water or food. Urine was collected for four hours after dosing of the test compound. At the end of four hours, urine volume was measured. Urinary osmolality was determined using a Fiske One-Ten Osmometer (Fiske Associates, Norwood, MA, 02062) or an Advanced CRYOMATIC Osmometer, Model 3C2 (Advanced Instruments, Norwood, MA). Determinations of Na^+, K^+ and Cl^- ion were carried out using ion specific electrodes in a Beckman SYNCHRON EL-ISE Electrolyte System analyzer. The urinary osmolality should increase proportionally. In the screening test, two rats were used for each compound. If the difference in the urine volume of the two rats was greater than 50%, a third rat was used.
Structure (SMILES),Changes in Urinary Osmolality [%],Urine Volume (% decrease) [%]
"Cc1ccn(-c2ccc(C(=O)N3Cc4ccc[n+]([O-])c4Nc4ccccc43)c(C(F)(F)F)c2)n1 [Example 4, 4-[(3-Methyl-1H-pyrazol-1-yl)-2-(trifluoromethyl)-phenyl]-(6,11-dihydro-5H-pyrido[2,3-b][1,5]benzodiazepin-6-yl)-methanone 1-oxide]",331,72
"Cc1ccn(-c2ccc(C(=O)N3Cc4ccc[n+]([O-])c4Nc4ccccc43)c(Br)c2)n1 [Example 3, [2-Bromo-4-(3-methyl-1H-pyrazol-1-yl)-phenyl]-(6,11-dihydro-5H-pyrido [2,3-b][1,5]benzodiazepin-6-yl)-methanone-1-oxide]",747,90
"Cc1ccn(-c2ccc(C(=O)N3Cc4ccc[n+]([O-])c4Nc4ccccc43)c(Cl)c2)n1 [Example 1, [2-Chloro-4-(3-methyl-1H-pyrazol-1-yl)-phenyl]-(6,11-dihydro-5H-pyrido[2,3-b][1,5]benzodiazepin-6-yl)-methanone-1-oxide]",753,80
